The subject of data set [1] is A-549 (lung) cancer cell line. Kind of data set: Antiproliferative assay, A-549. Conditions: Homo sapiens, A549; read-out: Antiproliferative activity IC50 ± SEM, A-549. It counts as cell-based, human. As to the method: (§1) Table 1 presents the median inhibitory concentration (IC50) and GI50 (mean IC50) for the four cancer cell lines.
(§2) Refer to Appendix A for additional information.
(§3) To explore the antiproliferative potential of compounds propidium iodide fluorescence assay was performed using different cell lines such as Panc-1 (pancreas cancer cell line) [Panc-1-CTC (RRID:CVCL_VQ69)], MCF-7 (breast cancer cell line) [MCF-7 (RRID:CVCL_0031)], HT-29 (colon cancer cell line) [HT-29 (RRID:CVCL_0320)] and A-549 (epithelial cancer cell line)[A-549 (RRID:CVCL_0023)], respectively. All cell lines were obtained from ATCC (American Type Cell Culture).
(§4) To calculate the total nuclear DNA, a fluorescent dye (propidium iodide, PI) is used which can attach to the DNA, thus offering a quick and precise technique. PI cannot pass through the cell membrane and its signal intensity can be considered as directly proportional to quantity of cellular DNA. Cells whose cell membranes are damaged or have changed permeability are counted as dead ones. The assay was performed by seeding the cells of different cell lines at a density of 3000-7500 cells/well (in 200 μl medium) in culture plates followed by incubation for 24 h at 37 °C in humidified 5% CO2 /95% air atmospheric conditions. The medium was removed; the compounds were added to the plates at 10 μM concentrations (in 0.1% DMSO) in triplicates, followed by incubation for 48 h. DMSO (0.1%) was used as control. After incubation, medium was removed followed by the addition of PI (25 μl, 50 μg/mL in water/medium) to each well of the plates. At -80 °C, the plates were allowed to freeze for 24 h, followed by thawing at 25 °C. A fluorometer (Polar-Star BMG Tech) was used to record the readings at excitation and emission wavelengths of 530 and 620 nm for each well. The percentage cytotoxicity of compounds was calculated using the following formula: […]

Data set [2] deals with MCF-7 (breast) cancer cell line. Kind of data set: Antiproliferative assay, MCF-7. The class given is cell-based, human. Conditions: Homo sapiens, MCF7; read-out: Antiproliferative activity IC50 ± SEM, MCF-7. The method, then:
as §1, §2, §3, §4

Data set [3] concerns Panc-1 (pancreatic) cancer cell line. Kind of data set: Antiproliferative assay, Panc-1. Particulars: Homo sapiens, PANC-1; read-out: Antiproliferative activity IC50 ± SEM, Panc-1. The class given is cell-based, human. The method, then:
as §1, §2, §3, §4

Data set [4] deals with HT-29 (colon) cancer cell line. Kind of data set: Antiproliferative assay, HT-29. It counts as cell-based, human. Particulars: Homo sapiens, read-out: Antiproliferative activity IC50 ± SEM, HT-29. As to the method:
as §1, §2, §3, §4

In data set [5] the test system is four cancer cell lines (A-549, MCF-7, Panc-1, HT-29). Kind of data set: Antiproliferative assay, mean over the four cancer cell lines (GI50). The class given is cell-based, human. Particulars: for IC50: Homo sapiens, mean IC50 of A-549, MCF-7, Panc-1, HT-29.
Text: as §1, §2
All cell lines were obtained from ATCC (American Type Cell Culture). […]

The nature of data set [6]: Cell viability assay (MTT) on normal cell line. Conditions: human, MCF-10A normal mammary gland epithelial cells.
Procedure: The viability of the investigated compounds was assessed using the normal human mammary gland epithelial cell line MCF-10A. After four days of incubation on MCF-10A cells with 50 µM of each examined compound, cell viability was assessed using the MTT test[46]^,[47].
The viability of 7a–o was determined using the normal human mammary gland epithelial (MCF-10A) cell line^46,[47].
MTT assay was performed to investigate the effect of the synthesized compounds on mammary epithelial cells (MCF-10A). The cells were propagated in medium consisting of Ham's F-12 medium/ Dulbecco's modified Eagle's medium (DMEM) (1:1) supplemented with 10% foetal calf serum (GIBCO, UK), 2 mM glutamine, insulin (10 μg/mL), hydrocortisone (500 ng/mL) and epidermal growth factor (20 ng/mL). Trypsin ethylenediamine tetra acetic acid (EDTA) was used to passage the cells after every 2-3 days. 96-well flat-bottomed cell culture plates were used to seed the cells at a density of 10^4 cells mL^-1. The medium was aspirated from all the wells of culture plates after 24 h followed by the addition of synthesized compounds (in 200 μL medium to yield a final concentration of 0.1% (v/v) dimethyl sulfoxide) into individual wells of the plates. Four wells were designated to a single compound. The plates were allowed to incubate at 37°C for 96 h. Afterwards, the medium was aspirated and 3-[4,5-dimethylthiazol-2-yl]-2,5-diphenyltetrazolium bromide (MTT) (0.4 mg/mL) in medium was added to each well and subsequently incubated for 3 h. The medium was aspirated and 150 μL dimethyl sulfoxide (DMSO) was added to each well. The plates were vortexed followed by the measurement of absorbance at 540 nm on a microplate reader.
A further data set addresses EGFR (Homo sapiens, UniProt P00533). Kind of data set: EGFR-TK inhibitory assay. Conditions: EGFR inhibition IC50 ± SEM.
In the next data set the target is VEGFR-2 (Homo sapiens, UniProt P35968). Kind of data set: VEGFR-2 kinase inhibitory assay.

Several values for one entry are separate records, joined by “and”; a condition that tells them apart may be missing. Equal entries are not always repeated.

Chain of EGFR (P00533 669-1210): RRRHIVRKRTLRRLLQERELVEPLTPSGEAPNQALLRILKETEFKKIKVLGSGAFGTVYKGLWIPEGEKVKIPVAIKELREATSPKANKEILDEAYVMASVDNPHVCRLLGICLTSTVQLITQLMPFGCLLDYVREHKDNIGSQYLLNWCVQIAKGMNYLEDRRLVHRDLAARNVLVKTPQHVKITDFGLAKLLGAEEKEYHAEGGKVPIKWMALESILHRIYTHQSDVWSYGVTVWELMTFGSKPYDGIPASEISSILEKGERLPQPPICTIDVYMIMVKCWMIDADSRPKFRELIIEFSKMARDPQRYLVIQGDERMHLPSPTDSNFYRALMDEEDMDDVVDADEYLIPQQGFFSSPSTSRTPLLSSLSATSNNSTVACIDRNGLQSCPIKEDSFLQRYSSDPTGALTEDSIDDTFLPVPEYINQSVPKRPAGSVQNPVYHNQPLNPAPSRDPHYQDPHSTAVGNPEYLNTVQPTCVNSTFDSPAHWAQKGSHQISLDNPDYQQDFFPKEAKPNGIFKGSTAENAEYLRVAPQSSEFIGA
Chain of VEGFR-2 (P35968 20-1356): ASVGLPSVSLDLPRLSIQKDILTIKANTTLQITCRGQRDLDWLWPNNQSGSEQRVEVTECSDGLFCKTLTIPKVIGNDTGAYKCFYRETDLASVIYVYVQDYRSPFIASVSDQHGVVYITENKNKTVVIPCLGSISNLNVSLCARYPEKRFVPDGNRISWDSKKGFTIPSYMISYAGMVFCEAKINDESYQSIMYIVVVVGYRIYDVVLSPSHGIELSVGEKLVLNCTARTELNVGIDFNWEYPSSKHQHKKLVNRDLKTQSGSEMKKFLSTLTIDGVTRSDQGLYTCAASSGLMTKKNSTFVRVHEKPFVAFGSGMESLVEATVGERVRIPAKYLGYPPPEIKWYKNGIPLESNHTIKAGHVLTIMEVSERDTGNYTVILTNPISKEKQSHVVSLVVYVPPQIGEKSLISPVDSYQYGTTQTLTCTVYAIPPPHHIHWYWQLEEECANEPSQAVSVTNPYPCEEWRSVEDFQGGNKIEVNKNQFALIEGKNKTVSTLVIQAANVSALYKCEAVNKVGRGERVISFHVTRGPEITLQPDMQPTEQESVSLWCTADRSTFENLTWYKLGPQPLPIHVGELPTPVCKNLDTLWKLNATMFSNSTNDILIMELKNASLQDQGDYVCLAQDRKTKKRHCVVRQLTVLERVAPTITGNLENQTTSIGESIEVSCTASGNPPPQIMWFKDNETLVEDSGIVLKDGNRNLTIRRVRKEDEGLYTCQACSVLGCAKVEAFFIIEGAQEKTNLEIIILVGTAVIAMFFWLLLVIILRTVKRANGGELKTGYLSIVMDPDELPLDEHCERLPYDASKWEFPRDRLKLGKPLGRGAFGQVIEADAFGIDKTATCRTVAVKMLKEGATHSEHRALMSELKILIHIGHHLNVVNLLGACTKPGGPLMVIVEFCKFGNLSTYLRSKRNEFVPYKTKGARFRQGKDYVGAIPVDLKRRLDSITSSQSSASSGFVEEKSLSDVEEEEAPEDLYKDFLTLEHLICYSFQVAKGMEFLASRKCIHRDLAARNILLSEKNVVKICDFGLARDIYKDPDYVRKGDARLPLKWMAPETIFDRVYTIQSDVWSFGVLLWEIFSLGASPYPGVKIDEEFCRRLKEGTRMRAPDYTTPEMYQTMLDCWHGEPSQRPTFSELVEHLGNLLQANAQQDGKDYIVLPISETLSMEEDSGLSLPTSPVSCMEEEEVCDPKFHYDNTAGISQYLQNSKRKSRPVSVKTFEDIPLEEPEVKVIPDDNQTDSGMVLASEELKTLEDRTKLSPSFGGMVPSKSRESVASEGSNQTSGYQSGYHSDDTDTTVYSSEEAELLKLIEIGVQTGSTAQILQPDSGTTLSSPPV
Procedure for VEGFR-2: Prepare all the solutions using autoclaved, deionized water and analytical grade reagents. Prepare and store all the reagents at room temperature (unless indicated otherwise). […] The assays used an ULight-labeled peptide substrate and a Europium-W1024-labeled antiphosphotyrosine antibody. The VEGFR-2 was purchased from Carna Biosciences, Inc. (New York, USA). The 384-well plates were obtained from PerkinElmer. […] Negative control: 2.5 μL/well 4×substrate/ATP mixture and 7.5 μL 1×kinase assay buffer in 384-well plate well. […] After incubation at room temperature and dark for 60 min, 5 μL 4×stop solution was added to corresponding wells to react for 5 min and then 5 μL 4×detection mix was added to the corresponding wells of a 384-well plate. The mixture was centrifugally mixed and stayed for 60 min at room temperature for color development. The plate was read using an Envision plate reader. The inhibition rate (%) = (positive well reading-compound well reading)/(positive well reading-negative well reading)×100. The corresponding IC50 values were calculated using GraphPad Prism 5.0.

The IC50 is the concentration that gives 50% inhibition. As a reminder, the viability is the share of living cells, or the viability signal relative to a control. A high value points to better survival. As to `CCS(=O)(=O)c1ccc2[nH]nc(C(=O)N/N=C/c3ccc(C#N)cc3)c2c1` [Compound 7a, (E)-N′-(4-Cyanobenzylidene)-5-(ethylsulfonyl)-1H-indazole-3-carbohydrazide], the IC50 in data set [1] came out at 77 ± 6 nM; in data set [2] it was 79 ± 6 nM; in data set [3], 77 ± 6 nM; in data set [4], 78 ± 6 nM; in data set [5], 78 nM. In addition, the “Fold less potent than 7 g (GI50)” value in data set [5] (GI50 ratio to 7 g) was 2.1 fold. The “Fold less potent than 7i (GI50)” value in data set [5] (GI50 ratio to 7i) amounted to 2.4 fold. In data set [5] (GI50 ratio to 7 l), the “Fold less potent than 7 l (GI50)” value was determined as 1.9 fold. The viability at 96 h, 50 µM in data set [6] was determined as 94%.

For `CCS(=O)(=O)c1ccc2[nH]nc(C(=O)N/N=C/c3cccnc3)c2c1` [Compound 7b, (E)-5-(ethylsulfonyl)-N′-(pyridin-3-ylmethylene)-1H-indazole-3-carbohydrazide], the IC50 in data set [1] was found to be 47 ± 3 nM; in data set [2], 50 ± 4 nM; in data set [3], 48 ± 3 nM; in data set [4], 48 ± 3 nM; in data set [5] it was 48 nM. In data set [6], this molecule had a viability at 96 h, 50 µM of 92%.

For the molecule `CCS(=O)(=O)c1ccc2[nH]nc(C(=O)N/N=C/c3ccc4c(cnn4C)c3)c2c1` [Compound 7c, (E)-5-(ethylsulfonyl)-N′-((1-methyl-1H-indazol-5-yl)methylene)-1H-indazole-3-carbohydrazide], the IC50 was 56 ± 4 nM in data set [1]; 59 ± 4 nM in data set [2]; 58 ± 4 nM in data set [3]; 58 ± 4 nM in data set [4]; 58 nM in data set [5]. The same molecule gave a viability at 96 h, 50 µM in data set [6] of 91%.

Consider `CCS(=O)(=O)c1ccc2[nH]nc(C(=O)N/N=C/c3ccc4ncccc4c3)c2c1` [Compound 7d, (E)-5-(ethylsulfonyl)-N′-(quinolin-6-ylmethylene)-1H-indazole-3-carbohydrazide], for which the IC50 in data set [1] turned out to be 53 ± 4 nM; in data set [2], 55 ± 4 nM; in data set [3] it was 54 ± 4 nM; in data set [4] it was 54 ± 4 nM; in data set [5], 54 nM. For the same molecule, the viability at 96 h, 50 µM in data set [6] is 92%.

Turning to `CCS(=O)(=O)c1ccc2[nH]nc(C(=O)N/N=C/c3nccs3)c2c1` [Compound 7e, (E)-5-(ethylsulfonyl)-N′-(thiazol-2-ylmethylene)-1H-indazole-3-carbohydrazide], the IC50 in data set [1] was 58 ± 4 nM; in data set [2] it was 61 ± 5 nM; in data set [3], 60 ± 5 nM; in data set [4], 60 ± 5 nM; in data set [5], 60 nM. Also, in data set [5] (GI50 ratio to 7j), the “Fold less potent than 7j (GI50)” value is reported as 2.3 fold. For the same molecule, the viability at 96 h, 50 µM in data set [6] was 94%.

In the case of `CCS(=O)(=O)c1ccc2[nH]nc(C(=O)N/N=C/c3ccc4c(ccn4C)c3)c2c1` [Compound 7f, (E)-5-(ethylsulfonyl)-N′-((1-methyl-1H-indol-5-yl)methylene)-1H-indazole-3-carbohydrazide], the IC50 in data set [1] is 71 ± 6 nM; in data set [2], 75 ± 6 nM; in data set [3], 73 ± 6 nM; in data set [4], 72 ± 6 nM; in data set [5], 73 nM. The viability at 96 h, 50 µM in data set [6] amounted to 92%.

Consider `CCS(=O)(=O)c1ccc2[nH]nc(C(=O)N/N=C/c3ccc(OC)c(O)c3)c2c1` [Compound 7g, (E)-5-(ethylsulfonyl)-N′-(3-hydroxy-4-methoxybenzylidene)-1H-indazole-3-carbohydrazide], for which the IC50 is 35 ± 2 nM in data set [1]; 38 ± 2 nM in data set [2]; 36 ± 2 nM in data set [3]; 36 ± 2 nM in data set [4]; 36 nM in data set [5]; 81 nM and 83 nM against EGFR. This molecule also yielded an IC50 at VEGFR-2 of 39 ± 2 nM. In data set [6], this molecule showed a viability at 96 h, 50 µM of 91%.

With `CCS(=O)(=O)c1ccc2[nH]nc(C(=O)N/N=C/c3cncnc3)c2c1` [Compound 7h, (E)-5-(ethylsulfonyl)-N′-(pyrimidin-5-ylmethylene)-1H-indazole-3-carbohydrazide], the IC50 in data set [1] was 67 ± 5 nM; in data set [2], 70 ± 6 nM; in data set [3] it was 68 ± 5 nM; in data set [4] it was 68 ± 5 nM; in data set [5], 68 nM. In data set [6], this molecule returned a viability at 96 h, 50 µM of 93%.

Turning to `CCS(=O)(=O)c1ccc2[nH]nc(C(=O)N/N=C/c3ccc(O)cc3)c2c1` [Compound 7i, (E)-5-(ethylsulfonyl)-N′-(4-hydroxybenzylidene)-1H-indazole-3-carbohydrazide], the IC50 in data set [1] was 31 ± 2 nM; in data set [2], 34 ± 2 nM; in data set [3], 32 ± 2 nM; in data set [4], 32 ± 2 nM; in data set [5] it was 32 nM; on EGFR it was 83 nM and 81 nM. In addition, it took 36 ± 2 nM to reach half-maximal inhibition against VEGFR-2 (IC50). In data set [6], this molecule came in with a viability at 96 h, 50 µM of 92%.

On to `CCS(=O)(=O)c1ccc2[nH]nc(C(=O)N/N=C/C3CC3)c2c1` [Compound 7m, (E)-N′-(cyclopropylmethylene)-5-(ethylsulfonyl)-1H-indazole-3-carbohydrazide], for which the IC50 in data set [1] is 49 ± 3 nM; in data set [2], 52 ± 4 nM; in data set [3] it was 50 ± 4 nM; in data set [4], 50 ± 4 nM; in data set [5], 50 nM. In addition, the viability at 96 h, 50 µM in data set [6] came out at 94%.

In the case of `CCS(=O)(=O)c1ccc2[nH]nc(C(=O)N/N=C/C3CCCC3)c2c1` [Compound 7n, (E)-N′-(cyclopentylmethylene)-5-(ethylsulfonyl)-1H-indazole-3-carbohydrazide], the IC50 was 63 ± 5 nM in data set [1]; 66 ± 5 nM in data set [2]; 64 ± 5 nM in data set [3]; 64 ± 5 nM in data set [4]; 64 nM in data set [5]. In addition, the viability at 96 h, 50 µM in data set [6] was 90%.

As to `C#Cc1cccc(Nc2ncnc3cc(OCCOC)c(OCCOC)cc23)c1` [Erlotinib, reference compound], the IC50 in data set [1] is 30 ± 3 nM; in data set [2], 40 ± 3 nM; in data set [3], 30 ± 3 nM; in data set [4], 30 ± 3 nM.

The record behind these values is paper PMC12897534, “Design, synthesis, and antiproliferative activity of new 5-ethylsulfonyl-indazole-3-carbohydrazides as dual EGFR/VEGFR-2 kinases inhibitors” (Journal of Enzyme Inhibition and Medicinal Chemistry, 2025).
